# Where two headings read alike, the source gives them in different places.
# Key:
# [1] = tested on: Hela cells; set-up: method as in Huang et al., 2022; conditions: 72-h treatment; ref Huang et al., 2022; read-out: IC50, cytotoxicity to Hela cells; cited from earlier work
# [2] = tested on: Hela cells; assay: Plate clone formation assay; assay type: cell-based, human; conditions: 0, 5, 10, 20 μM, dose-dependent
# Method: (§1) To validate the impact of compound c13 on cell proliferation, plate clone formation assay was performed.
# Hela cells with a density of 5 × 10^2 cells/well were seeded in 6-well plates overnight. The cells were treated with different concentrations of compounds (0, 5, 10, and 20 μM) were added and continued to be cultured at 37°C with 5% CO2. When more than 50 cell clone formations were visible, the culture medium was discharged. Then, the cells were fixed with 2 mL of 4% paraformaldehyde for 15 min and stained with 2 mL of crystal violet solution at room temperature for 15 min. A microscope was used to take photos and count the number of cell clones.
# [3] = tested on: Hela cells; assay: Morphological profiles of Hela cells by microscope; assay type: cell-based, human; conditions: 0, 5, 10, 20 μM
# Method: FIGURE 2 Anti-proliferative Effects of compound c13 on Hela cells. (A) Dose-dependent cytotoxicity of compound c13, assessed at concentrations ranging from 0 to 40 μM on HeLa cells. Cell viability was plotted against the logarithm of compound c13 concentrations (n = 3). (B) Morphological profiles of Hela cells were taken by microscope after treatment with compound c13 at different doses (0, 5, 10, and 20 μM) (n = 3). (C) Representative photomicrographs of plate colony formation assay data with compound c13 at different doses (0, 5, 10, and 20 μM) (n = 3).
# as §1
# [4] = tested on: Bax, Bcl-2, caspase 9, caspase 3, PARP1 in Hela cells; assay: Western blot of apoptosis-associated proteins in Hela cells; assay type: cell-based, human; conditions: 10 and 20 μM
# Description: To explore whether the induction of apoptosis caused by compound c13 was associated with the activation of the apoptosis-related protein, a western blot was used to detect the expression of the protein including Bax and Bcl-2. […] Furthermore, the ratio of Bax to Bcl-2 was raised after being treated with compound c13, leading to apoptosis in Hela cells.
# To determine the potential function of compound c13 in the regulation of the apoptosis signaling pathway, downstream key proteins containing caspase 3, caspase 9, and PARP1 were detected by western blot. […] Besides, a corresponding increase in the levels of cleaved-caspase 3, and cleaved-PARP1 was observed (Figure 6).
# Whole cell extracts were prepared by lysing cells on ice for 30 min using RIPA lysis buffer (Beyotime Biotechnology, Shanghai, China). Following centrifugation at 12, 000 g for 15 min at 4°C, the supernatants were collected. The protein content concentrations of samples were determined according to the manufacturer’s protocol for the BCA protein assay kit (Thermo Scientific, Rockford, IL, United States).
# Equal amounts of protein were resolved using sodium dodecyl sulfate polyacrylamide gel electrophoresis (SDS-PAGE) and subsequently transferred to a 0.2 μm nitrocellulose membrane. The membranes underwent blocking for a minimum of 1 h in 5% skimmed milk diluted in TBST. Subsequently, the blots were incubated overnight at 4°C with primary antibodies. Primary antibodies used were include, Bcl-2 (ABclonal, Wuhan, China), Bax (Wanleibio, Shenyang, China), Caspase 9/p35/p10 antibody (Proteintech, Wuhan, China), Caspase 3/p17/p19 (Proteintech, Wuhan, China), PARP-1 (Proteintech, Wuhan, China), β-actin (Sigma-Aldrich, St Louis, MO, United States). Following incubation, the membranes were washed three times with TBST buffer and then incubated with secondary antibodies (Kangchen Biotechnology, Shanghai, China) for 1 h at room temperature. Subsequently, the blots were washed three times with TBST buffer and developed using an enhanced chemiluminescence reagent (Millipore Corporation, Bedford, MA, United States). The intensity of each protein band was quantitatively analyzed using ImageJ software.
# [5] = tested on: NIH3T3 cells; assay: MTT cell viability assay, NIH3T3 cells; assay type: cell-based; conditions: Mus musculus, 48 h, tested 0-40 μM
# Method: (§2) To define the effects of compound c13 on cancer cell proliferation, the half-maximal inhibitory concentration (IC50) of compound c13 in Hela cells was calculated. Hela cells were treated with compound c13 at different concentrations (0 μM, 1 μM, 5 μM, 10 μM, 20 μM, and 40 μM) respectively for 48 h, and the cell viability was detected using the MTT method. […]. […] In contrast, its effect on the proliferation of HEK293T and NIH3T3 cells was minimal, with both IC50 values exceeding 100 μM.
# (§3) Figure S1. The effect of compound c13 on the survival rate of HEK293T, NIH3T3, and Hela cells. compound c13 (0, 10, 20, and 40 μM) was used to treat HEK293T, NIH3T3, and Hela cells for 48 hours, and the cell survival rate was detected using the MTT method (n=3).
# [6] = tested on: HEK293T cells; assay: MTT cell viability assay, HEK293T cells; assay type: cell-based; conditions: Homo sapiens, HEK-293T, 48 h, tested 0-40 μM
# Method: as §2, §3
# [7] = tested on: Hela cells; assay: Cell cycle analysis by flow cytometry (PI); assay type: cell-based, human; conditions: 48 h
# Method: To further evaluate the effect of compound c13 on the cell cycle, the cell cycle distributions of Hela cells after treatment of compound c13 were detected by flow cytometry.
# Hela cells with a density of 1.5 × 10^5 cells/well were seeded in 12-well plates overnight. Different concentrations of compounds (0, 5, 10, and 20 μM) were added to treat the cells for 48 h. After treatment, the cells were washed with PBS and then the cells were fixed with 70% ethanol at −20°C overnight. Subsequently, the cells were stained with PI staining solution containing 10 μg/mL RNAase for 30 min in the dark. The data was collected by BD Accuri C6 Plus flow cytometry (BD Biosciences). All analyses were performed with FlowJo software.
# [8] = tested on: Hela cells; assay: Apoptosis assay, Annexin V-FITC/PI flow cytometry; assay type: cell-based, human; conditions: 20 μM, 48 h
# Method: To assess whether the anti-proliferative effects of compound c13 on Hela cells were associated with apoptosis, cell apoptosis after treatment of compound c13 was measured using Annexin V-FITC and propidium iodide (PI) staining by flow cytometer. […] Compared with the normal control group, compound c13 at 20 μM markedly raised the apoptotic ratio of Hela cells to 62.03% ± 9.48%.
# Hela cells with a density of 1.5 × 10^5 cells/well were seeded in 12-well plates overnight for adhesion. The cells were treated with different concentrations of compounds (0, 5, 10, and 20 μM) for 48 h. After treatment, the cells were washed with PBS and stained with Annexin V-FITC and Propidium Iodide (PI) for 15 min in the dark. Cell apoptosis rate was detected by BD Accuri C6 Plus flow cytometry (BD Biosciences) and all analyses were performed with FlowJo software.
# [9] = tested on: Hela cells; assay: MTT cell viability assay, Hela cells; assay type: cell-based; conditions: Homo sapiens, 48 h; for viability at 10 µM: mean ± SEM (n = 3)
# [10] = tested on: Hela cells; set-up: method as in Khanam et al., 2019; conditions: ref Khanam et al., 2019; cited from earlier work
structure (smiles),measurement,setting,value
C[C@]12CC[C@@H]3c4ccc(O)cc4CC[C@H]3[C@@H]1CC[C@@H]2O [β-estradiol],IC50,[1],18.7 ± 1.57 µM
"COc1cc2ncnc(Nc3cccc(-c4cn(Cc5cc(Br)cc(Br)c5)nn4)c3)c2cc1OCCCN1CCOCC1 [c13, N-(3-(1-(3,5-dibromobenzyl)-1H-1,2,3-triazol-4-yl)phenyl)-7-methoxy-6-(3-morpholinopropoxy)quinazolin-4-amine]",Colony formation ability of Hela cells,[2],significantly inhibited the colony formation ability
same,Morphological changes of Hela cells,[3],severe morphological changes
same,Level of cleaved-PARP1,[4],increase
same,Level of cleaved-caspase 3,[4],increase
same,Level of cleaved-caspase 9,[4],tendency of upregulation but had no significant difference
same,Protein expression of pro-apoptotic Bax,[4],enhanced
same,Protein level of anti-apoptotic Bcl-2,[4],diminished
same,Ratio of Bax to Bcl-2,[4],raised
same,Protein level of full-length PARP1,[4]; vs control group,decreased
same,Protein level of full-length caspase 3,[4]; vs control group,decreased
same,Protein level of full-length caspase 9,[4]; vs control group,decreased
same,IC50,[5],> 100 µM
same,IC50,[6],> 100 µM
same,Proportion of the G1 phase,"[7]; 20 μM, printed as % of control group",52.05% ± 2.85%
same,Percentage of cells in the G2/M phase,[7]; 10 and 20 μM,upregulated
same,Apoptotic ratio of Hela cells,[8],62.03% ± 9.48%
same,viability at 10 µM,[9],32.6 ± 8.61%
same,IC50,[9]; read-out: IC50 against Hela cells,5.66 ± 0.35 µM
"COc1cccc2c1C(=O)c1c(O)c3c(c(O)c1C2=O)C[C@@](O)(C(=O)CO)C[C@@H]3O[C@H]1C[C@H](N)[C@H](O)[C@H](C)O1 [Doxorubicin, reference compound]",viability at 10 µM,[9],11.9 ± 1.2%
COc1cc2ncnc(Nc3ccc(F)c(Cl)c3)c2cc1OCCCN1CCOCC1 [Gefitinib],viability at 10 µM,[9],75.9 ± 2.88%
"Nc1ccc(-c2nnc(CN3CCN(C(c4ccccc4)c4ccccc4)CC3)o2)cc1 [4d, N-benzhydryl-4-((5-(4-aminophenyl)-1,3,4-oxadiazol-2-yl)methyl)piperazine]","IC50, HeLa cells",[10],28.13 ± 0.21 µg/mL

# Source: article PMC11802567, “Anti-cancer activity of synthetic gefitinib-1,2,3-triazole derivatives against Hela cells via induction of apoptosis” (Frontiers in Chemistry, 2025)
